Square brackets hold non-standard residues; d marks the D form. Peptide text beside a SMILES is read from it. Pro(trans-4-F) = O=C(O)[C@@H]1C[C@@H](F)CN1; pY = N[C@@H](Cc1ccc(OP(=O)(O)O)cc1)C(=O)O; Arg(Me) = CNC(=N)NCCC[C@H](N)C(=O)O; cisHyp = O=C(O)[C@@H]1C[C@H](O)CN1; Hyp = O=C(O)[C@@H]1C[C@@H](O)CN1; azaGly = NNC(=O)O

In this assay the target is T1, hOT7T175 (Homo sapiens, UniProt Q969F8).
T1 construct: expressed in transfected cells
In words: Assay for intracellular Ca ion level-increasing activity using FLIPR. Type of assay: cell-based. Particulars: hOT7T175/CHO cells, relative to Metastin (1-54). Put shortly: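 CHO/dhfr− cells stably transfected with hOT7T175, selected for high metastin response, loaded with Fluo3-AM for 1 h at 37 °C in HANKS/HBSS (pH 7.4) with probenecid. Peptides were diluted from 1×10^−3 M DMSO stock into HANKS/HBSS with 2.5 mM probenecid, 0.2% BSA, 0.1% CHAPS; intracellular Ca rise read by FLIPR.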

T1 sequence (Q969F8 whole entry L364H): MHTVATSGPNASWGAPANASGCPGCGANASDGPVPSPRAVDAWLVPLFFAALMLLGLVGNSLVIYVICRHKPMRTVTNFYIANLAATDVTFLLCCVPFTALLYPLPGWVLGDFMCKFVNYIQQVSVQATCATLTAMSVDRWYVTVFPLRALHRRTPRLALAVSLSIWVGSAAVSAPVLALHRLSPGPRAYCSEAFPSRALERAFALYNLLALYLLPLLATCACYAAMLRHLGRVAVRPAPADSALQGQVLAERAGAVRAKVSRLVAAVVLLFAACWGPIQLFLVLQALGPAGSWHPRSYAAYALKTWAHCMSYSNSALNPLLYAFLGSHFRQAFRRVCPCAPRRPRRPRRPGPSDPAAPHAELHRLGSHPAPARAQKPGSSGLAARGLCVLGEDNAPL

Consider `CNC(=N)NCCC[C@H](NC(=O)[C@H](CC(C)C)NC(=O)NNC(=O)[C@H](Cc1ccccc1)NC(=O)[C@@H](NC(=O)[C@H](CC(N)=O)NC(=O)[C@@H]1C[C@H](O)CN1C(=O)[C@@H](Cc1ccc(O)cc1)NC(C)=O)[C@@H](C)O)C(=O)N[C@@H](Cc1c[nH]c2ccccc12)C(N)=O` [Compound No. 896, Ac-D-Tyr-cisHyp-Asn-Thr-Phe-AzaGly-Leu-Arg(Me)-Trp-NH2] (Ac-[dY][cisHyp]NTF[azaGly]L[Arg(Me)]W-NH2), for which the “Specific Activity: intracellular Ca ion level-increasing activity [specific activity to Metastin (1-54)]” value is listed as 0.6.

Consider `CNC(=N)NCCC[C@H](NC(=O)[C@H](CC(C)C)NC(=O)NNC(=O)[C@H](Cc1ccccc1)NC(=O)[C@@H](NC(=O)[C@H](CC(N)=O)NC(=O)[C@@H]1C[C@@H](F)CN1C(=O)[C@@H](Cc1ccc(O)cc1)NC(C)=O)[C@@H](C)O)C(=O)N[C@@H](Cc1c[nH]c2ccccc12)C(N)=O` [Compound No. 897, Ac-D-Tyr-Pro(4F)-Asn-Thr-Phe-AzaGly-Leu-Arg(Me)-Trp-NH2] (Ac-[dY][Pro(trans-4-F)]NTF[azaGly]L[Arg(Me)]W-NH2), for which the “Specific Activity: intracellular Ca ion level-increasing activity [specific activity to Metastin (1-54)]” value amounted to 0.7.

Consider `CNC(=N)NCCC[C@H](NC(=O)[C@H](CC(C)C)NC(=O)NNC(=O)[C@H](Cc1ccccc1)NC(=O)[C@@H](NC(=O)[C@H](CC(N)=O)NC(=O)[C@@H]1C[C@@H](O)CN1C(=O)[C@H](Cc1ccc(O)cc1)NC(C)=O)[C@@H](C)O)C(=O)N[C@@H](Cc1c[nH]c2ccccc12)C(N)=O` [Compound No. 899, Ac-Tyr-Hyp-Asn-Thr-Phe-AzaGly-Leu-Arg(Me)-Trp-NH2] (Ac-Y[Hyp]NTF[azaGly]L[Arg(Me)]W-NH2), for which the “Specific Activity: intracellular Ca ion level-increasing activity [specific activity to Metastin (1-54)]” value turned out to be 1.1.

As to “Ac-D-Tyr-Aze(3)-Asn-Thr-Phe-AzaGly-Leu-Arg(Me)-Trp-NH2 [Compound No. 730]”, the “Specific Activity: intracellular Ca ion level-increasing activity [specific activity to Metastin (1-54)]” value is listed as 4.1.

In the case of “Ac-D-Tyr-D-Trp-Asn-D-Pro-Phe-AzaGly-Leu-Arg(Me)-Trp-NH2 (Ac-[dY][dW]N[dP]F[azaGly]L[Arg(Me)]W-NH2; SMILES CNC(=N)NCCC[C@H](NC(=O)[C@H](CC(C)C)NC(=O)NNC(=O)[C@H](Cc1ccccc1)NC(=O)[C@H]1CCCN1C(=O)[C@H](CC(N)=O)NC(=O)[C@@H](Cc1c[nH]c2ccccc12)NC(=O)[C@@H](Cc1ccc(O)cc1)NC(C)=O)C(=O)N[C@@H](Cc1c[nH]c2ccccc12)C(N)=O) [Compound No. 719]”, the “Specific Activity: intracellular Ca ion level-increasing activity [specific activity to Metastin (1-54)]” value worked out at 3.8.

On to “Ac-D-Tyr-Tyr(PO3H2)-Asn-Thr-Phe-AzaGly-Leu-Arg(Me)-Trp-NH2 (Ac-[dY][pY]NTF[azaGly]L[Arg(Me)]W-NH2; SMILES CNC(=N)NCCC[C@H](NC(=O)[C@H](CC(C)C)NC(=O)NNC(=O)[C@H](Cc1ccccc1)NC(=O)[C@@H](NC(=O)[C@H](CC(N)=O)NC(=O)[C@H](Cc1ccc(OP(=O)(O)O)cc1)NC(=O)[C@@H](Cc1ccc(O)cc1)NC(C)=O)[C@@H](C)O)C(=O)N[C@@H](Cc1c[nH]c2ccccc12)C(N)=O) [Compound No. 775]”, for which the “Specific Activity: intracellular Ca ion level-increasing activity [specific activity to Metastin (1-54)]” value was found to be 1.3.
